# Source: patent US9540384B2, “Pyrrolidino heterocycles” (Hoffmann-La Roche Inc., priority 2012, dated 2017)
# pIC50: −log10 of the molar value. Counter-ions that a name gives are not always drawn.
# Target: human PDE10A full length (Homo sapiens (Human), UniProt Q9Y233)
# Assay: human PDE10A full length Scintillation Proximity Assay (SPA)
# Type: biochemical
# Conditions: PDE10A enzyme, 50 nM cGMP + 50 nM [3H]-cGMP, 20 minutes at room temperature
# Procedure: The following test was carried out in order to determine the activity of the compounds of the present invention. PDE10 activity of the compounds of the present invention was determined using a Scintillation Proximity Assay (SPA)-based method similar to the one previously described (Fawcett, L. et al., Proc Natl Acad Sci USA (2000) 97(7):3702-3707).
# The human PDE10A full length assay was performed in 96-well micro titer plates. The reaction mixture of 50 μl contained 20 mM HEPES pH=7.5/10 mM MgCl2/0.05 mg/ml BSA (Sigma cat. #A-7906), 50 nM cGMP (Sigma, cat. #G6129) and 50 nM [3H]-cGMP (GE Healthcare, cat. #TRK392 S.A. 13.2 Ci/mmol), 3.75 ng/well PDE10A enzyme (Enzo Life Science, Lausen, Switzerland cat #SE-534) with or without a specific test compound. A range of concentrations of the potential inhibitor was used to generate data for calculating the concentration of inhibitor resulting in 50% of the effect (e.g. IC50, the concentration of the competitor inhibiting PDE10A activity by 50%). Non-specific activity was tested without the enzyme. The reaction was initiated by the addition of the substrate solution (cGMP and [3H]-cGMP) and allowed to progress for 20 minutes at room temperature. The reaction was terminated by adding 25 μl of YSi-SPA scintillation beads (GE Healthcare, cat. #RPNQ0150) in 18 mM zinc sulphate solution (stop reagent). After 1 h under shaking, the plate was centrifuged one minute at 170 g to allow beads to settle. Afterwards, radioactive counts were measured on a Perkin Elmer TopCount Scintillation plate reader.
# human PDE10A full length, sequence (Q9Y233 other isoform, or with tags, fused parts or gaps): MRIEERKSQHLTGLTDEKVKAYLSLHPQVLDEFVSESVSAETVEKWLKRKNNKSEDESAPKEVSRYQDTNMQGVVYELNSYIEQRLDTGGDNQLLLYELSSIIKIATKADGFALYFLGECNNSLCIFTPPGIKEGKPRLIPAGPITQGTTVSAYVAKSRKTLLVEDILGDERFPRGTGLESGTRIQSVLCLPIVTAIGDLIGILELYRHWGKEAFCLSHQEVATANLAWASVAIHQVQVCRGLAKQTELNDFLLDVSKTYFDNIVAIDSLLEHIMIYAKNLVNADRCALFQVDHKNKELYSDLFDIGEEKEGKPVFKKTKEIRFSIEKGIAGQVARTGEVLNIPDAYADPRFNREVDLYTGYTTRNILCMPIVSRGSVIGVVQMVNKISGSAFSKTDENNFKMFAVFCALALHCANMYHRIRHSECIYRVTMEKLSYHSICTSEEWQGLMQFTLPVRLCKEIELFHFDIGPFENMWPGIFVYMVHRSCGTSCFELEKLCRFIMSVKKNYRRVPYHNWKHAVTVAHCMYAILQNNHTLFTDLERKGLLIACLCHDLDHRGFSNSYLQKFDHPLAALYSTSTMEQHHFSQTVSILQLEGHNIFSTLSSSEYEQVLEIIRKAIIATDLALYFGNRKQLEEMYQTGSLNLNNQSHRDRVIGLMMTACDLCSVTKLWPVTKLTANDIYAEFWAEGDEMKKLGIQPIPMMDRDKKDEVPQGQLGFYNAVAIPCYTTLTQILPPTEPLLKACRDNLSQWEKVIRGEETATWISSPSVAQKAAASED
row,SMILES,pIC50
1,"Cc1cc(N2CCCC2)nc(/C=C/c2ccc3ccccc3n2)n1 [Example 1, (E)-2-[2-(4-Methyl-6-pyrrolidin-1-yl-pyrimidin-2-yl)-vinyl]-quinoline]",6.28
2,"COc1c(C)cnc(/C=C/c2cccc(N3CCOCC3)n2)c1C [Example 2, (E)-4-(6-(2-(4-Methoxy-3,5-dimethylpyridin-2-yl)vinyl)pyridin-2-yl)morpholine]",5.10
3,"COc1c(C)cnc(/C=C/c2cccc(N3CCCC3)n2)c1C [Example 3, (E)-4-methoxy-3,5-dimethyl-2-(2-(6-(pyrrolidin-1-yl)pyridin-2-yl)vinyl)pyridine]",6.10
4,"CNc1cccc(CCc2nc(-c3ccccc3)cn2C)n1 [Example 4, Methyl-{6-[2-(1-methyl-4-phenyl-1H-imidazol-2-yl)-ethyl]-pyridin-2-yl}-amine]",5.39
5,"COc1c(C)cnc(CCc2cccc(N3CCCC3)n2)c1C [Example 5, 4-Methoxy-3,5-dimethyl-2-(2-(6-(pyrrolidin-1-yl)pyridin-2-yl)ethyl)pyridine]",6.21
6,"Cn1cc(-c2ccccc2)nc1CCc1cccc(N2CCCC2)n1 [Example 6, 2-(2-(1-Methyl-4-phenyl-1H-imidazol-2-yl)ethyl)-6-(pyrrolidin-1-yl)pyridine]",5.74
7,"Cn1cc(-c2ccccc2)nc1CCc1cccc(N2CCOCC2)n1 [Example 7, 4-(6-(2-(1-Methyl-4-phenyl-1H-imidazol-2-yl)ethyl)pyridin-2-yl)morpholine]",5.50
8,"Cc1nc(C)c(CCc2cccc(N3CCCC3)n2)nc1C [Example 8, 2,3,5-Trimethyl-6-(2-(6-(pyrrolidin-1-yl)pyridin-2-yl)ethyl)pyrazine]",6.22
9,"Cc1nc2ccccc2nc1OCc1cccc(N2CCCC2)n1 [Example 9, 2-Methyl-3-((6-(pyrrolidin-1-yl)pyridin-2-yl)methoxy)quinoxaline]",7.52
10,"Cc1nc2ccccc2nc1/C=C/c1cccc(N2CCCC2)n1 [Example 10, 2-Methyl-3-[(E)-2-(6-pyrrolidin-1-yl-pyridin-2-yl)-vinyl]-quinoxaline]",7.05
11,"Cc1nc2ccccc2nc1CCc1cccc(N2CCCC2)n1 [Example 11, 2-Methyl-3-[2-(6-pyrrolidin-1-yl-pyridin-2-yl)-ethyl]-quinoxaline]",6.92
12,"Cc1oc(-c2ccccc2)nc1CCc1cccc(N2CCCC2)n1 [Example 12, 2-[2-(5-Methyl-2-phenyl-oxazol-4-yl)-ethyl]-6-pyrrolidin-1-yl-pyridine]",5.70
13,"Clc1ccc2nc(OCc3cccc(N4CCCC4)n3)nc(N3CCOCC3)c2c1 [Example 13, 4-(6-Chloro-2-((6-(pyrrolidin-1-yl)pyridin-2-yl)methoxy)quinazolin-4-yl)morpholine]",8.60
14,"Cn1cc(-c2ccccc2)nc1CCc1cncc(N2CCCN2)n1 [Example 14, 2-(2-(1-Methyl-4-phenyl-1H-imidazol-2-yl)ethyl)-6-(pyrazolidin-1-yl)pyrazine hydrochloride]",6.92
15,"Cc1nc2ccccc2nc1OCc1cccc(N2CCCCC2)n1 [Example 15, 2-Methyl-3-((6-(piperidin-1-yl)pyridin-2-yl)methoxy)quinoxaline]",5.77
16,"c1cc(COc2nc(N3CCOCC3)c3ccccc3n2)nc(N2CCCC2)c1 [Example 16, 4-(2-((6-(Pyrrolidin-1-yl)pyridin-2-yl)methoxy)quinazolin-4-yl)morpholine]",7.30
17,"CN(C)c1nc(OCc2cccc(N3CCCC3)n2)nc2ccc(Cl)cc12 [Example 17, 6-Chloro-N,N-dimethyl-2-((6-(pyrrolidin-1-yl)pyridin-2-yl)methoxy)quinazolin-4-amine]",8.15
18,"Cn1ncc2c(N3CCOCC3)nc(OCc3cccc(N4CCCC4)n3)nc21 [Example 18, 4-(1-Methyl-6-((6-(pyrrolidin-1-yl)pyridin-2-yl)methoxy)-1H-pyrazolo-[3,4-d]pyrimidin-4-yl)morpholine]",6.56
19,"Clc1ccc2nc(/C=C/c3cccc(N4CCCC4)n3)nc(N3CCOCC3)c2c1 [Example 19, (E)-4-(6-Chloro-2-(2-(6-(pyrrolidin-1-yl)pyridin-2-yl)vinyl)quinazolin-4-yl)morpholine]",8.20
20,"Clc1ccc2nc(CCc3cccc(N4CCCC4)n3)nc(N3CCOCC3)c2c1 [Example 20, 4-(6-Chloro-2-(2-(6-(pyrrolidin-1-yl)pyridin-2-yl)ethyl)quinazolin-4-yl)morpholine]",8.48

row,SMILES,pIC50
1,"c1cc(CCc2nc(N3CCOCC3)c3ccccc3n2)nc(N2CCCC2)c1 [Example 21, 4-(2-(2-(6-(Pyrrolidin-1-yl)pyridin-2-yl)ethyl)quinazolin-4-yl)morpholine]",7.34
2,"c1cc(COc2cc(N3CCOCC3)nc(-c3ccn[nH]3)n2)nc(N2CCCC2)c1 [Example 23, 4-[2-(2H-Pyrazol-3-yl)-6-(6-pyrrolidin-1-yl-pyridin-2-ylmethoxy)-pyrimidin-4-yl]-morpholine]",5.97
3,"c1cncc(-c2nc(OCc3cccc(N4CCCC4)n3)cc(N3CCOCC3)n2)c1 [Example 24, 4-(2-(Pyridin-3-yl)-6-((6-(pyrrolidin-1-yl)pyridin-2-yl)methoxy)-pyrimidin-4-yl)morpholine]",5.79
4,"CN(C)c1nc(/C=C/c2cccc(N3CCC(CO)C3)n2)nc2ccc(Cl)cc12 (stereo not drawn) [Example 25, (E)-(1-(6-(2-(6-Chloro-4-(dimethylamino)quinazolin-2-yl)vinyl)pyridin-2-yl)pyrrolidin-3-yl)methanol]",6.66
5,"O=c1[nH]c(CCc2cccc(N3CCCC3)n2)nc2cccc(Cl)c12 [Example 26, 5-Chloro-2-(2-(6-(pyrrolidin-1-yl)pyridin-2-yl)ethyl)quinazolin-4(3H)-one]",6.40
6,"COc1c(Cl)ccc2nc(CCc3cccc(N4CCCC4)n3)[nH]c(=O)c12 [Example 27, 6-Chloro-5-methoxy-2-(2-(6-(pyrrolidin-1-yl)pyridin-2-yl)ethyl)-quinazolin-4(3H)-one]",6.33
7,"Cc1nc2nc(CCc3cccc(N4CCCC4)n3)[nH]c(=O)c2n1C [Example 28, 7,8-Dimethyl-2-(2-(6-(pyrrolidin-1-yl)pyridin-2-yl)ethyl)-1H-purin-6(7H)-one]",5.56
8,"O=c1[nH]c(CCc2cccc(N3CCCC3)n2)nc2ccc(Cl)cc12 [Example 29, 6-Chloro-2-(2-(6-(pyrrolidin-1-yl)pyridin-2-yl)ethyl)quinazolin-4(3H)-one]",7.00
9,"CC1CCC(C)N1c1cccc(CCc2nc(N(C)C)c3ccccc3n2)n1 (stereo not drawn) [Example 30, 2-(2-(6-(2,5-Dimethylpyrrolidin-1-yl)pyridin-2-yl)ethyl)-N,N-dimethylquinazolin-4-amine]",5.64
10,"CN(C)c1nc(CCc2cccc(N3CCC(O)C3)n2)nc2ccc(Cl)cc12 (stereo not drawn) [Example 31, 1-(6-(2-(6-Chloro-4-(dimethylamino)quinazolin-2-yl)ethyl)pyridin-2-yl)pyrrolidin-3-ol]",6.11
11,"CN(C)c1nc(CCc2cccc(N3CCC(O)C3)n2)nc2ccccc12 (stereo not drawn) [Example 32, 1-(6-(2-(4-(Dimethylamino)quinazolin-2-yl)ethyl)pyridin-2-yl)-pyrrolidin-3-ol]",6.32
12,"CN(C)c1nc(CCc2cccc(N3CCC(CO)C3)n2)nc2ccc(Cl)cc12 (stereo not drawn) [Example 33, (1-(6-(2-(6-Chloro-4-(dimethylamino)quinazolin-2-yl)ethyl)pyridin-2-yl)pyrrolidin-3-yl)methanol]",6.82
13,"CN(C)c1nc(CCc2cccc(N3CCC(CO)C3)n2)nc2ccccc12 (stereo not drawn) [Example 34, (1-(6-(2-(4-(Dimethylamino)quinazolin-2-yl)ethyl)pyridin-2-yl)pyrrolidin-3-yl)methanol]",5.79
14,"CC1CCCN1c1cccc(/C=C/c2nc(N(C)C)c3cc(Cl)ccc3n2)n1 (stereo not drawn) [Example 35, (E)-6-Chloro-N,N-dimethyl-2-(2-(6-(2-methylpyrrolidin-1-yl)pyridin-2-yl)vinyl)quinazolin-4-amine]",7.57
15,"CN(C)c1nc(/C=C/c2cccc(N3CCCC3=O)n2)nc2ccc(Cl)cc12 [Example 36, (E)-1-(6-(2-(6-chloro-4-(dimethylamino)quinazolin-2-yl)vinyl)pyridin-2-yl)pyrrolidin-2-one]",6.09
16,"Cc1cccc2c(=O)[nH]c(CCc3cccc(N4CCCC4)n3)nc12 [Example 37, 8-methyl-2-(2-(6-(pyrrolidin-1-yl)pyridin-2-yl)ethyl)quinazolin-4(3H)-one]",5.49
17,"CC1CCCN1c1cccc(CCc2nc(N(C)C)c3cc(Cl)ccc3n2)n1 (stereo not drawn) [Example 38, 6-Chloro-N,N-dimethyl-2-(2-(6-(2-methylpyrrolidin-1-yl)pyridin-2-yl)ethyl)quinazolin-4-amine]",7.09
18,"CN(C)c1nc(/C=C/c2cccc(N(C)CCO)n2)nc2ccc(Cl)cc12 [Example 39, (E)-2-((6-(2-(6-Chloro-4-(dimethylamino)quinazolin-2-yl)vinyl)pyridin-2-yl)(methyl)amino)ethanol]",6.62
19,"CN(C)c1nc(CCc2cccc(N(C)CCO)n2)nc2ccc(Cl)cc12 [Example 40, 2-((6-(2-(6-Chloro-4-(dimethylamino)quinazolin-2-yl)ethyl)pyridin-2-yl)(methyl)amino)ethanol]",5.67
